Measurements as given in the NIST ThermoML archive (doi:10.1016/j.jct.2014.12.001).
Numbers after ± are expanded uncertainties.

Conditions: 100 kPa, Liquid, Parallel plate method

thermal conductivity (283.15 K) [W/m/K] | thermal conductivity (303.15 K) [W/m/K] | thermal conductivity (323.15 K) [W/m/K] | thermal conductivity (343.15 K) [W/m/K] | SMILES
0.239 ± 0.02 | 0.248 ± 0.02 | 0.257 ± 0.02 | 0.266 ± 0.02 | OCCO [1,2-ethanediol]
0.206 ± 0.02 | 0.207 ± 0.02 | 0.206 ± 0.02 | 0.207 ± 0.02 | CC(O)CO (stereo not drawn) [1,2-propanediol]
